Data as given in patent publication US20160346291A1, “COMPOSITIONS AND THERAPEUTIC METHODS FOR ACCELERATED PLAQUE REGRESSION” (Resverlogix Corp, priority 2013, published 2016).

Each compound was assayed on ApoA-I mRNA (assay: ApoA-I mRNA quantitation in HepG2 cells (real-time PCR)). Settings: concentration less than or equal to 100 uM, fold induction relative to DMSO control.
Assay type: cell-based
Parameters: key: Active: An active compound is one that causes a >15% increase in ApoA-I mRNA at a concentration less than or equal to 100 uM
Procedure: At time of harvesting, the spent media was removed from the HepG2 cells and immediately placed on ice (for immediate use) or at −80° C. (for future use) in ApoA-I and albumin ELISAs. The cells remaining in the plate wells were rinsed in 200 μL PBS. PBS was carefully removed to avoid removing any loosely attached cells.
Once the PBS was removed, 85 μL cell lysis solution was added to the cells in each well and incubated for 5-10 min at room temperature, to allow for complete cell lysis and detachment. mRNA was then prepared using the “mRNA Catcher PLUS plate” from Invitrogen, according to the protocol supplied. After the last wash, as much wash buffer as possible was aspirated without allowing the wells to dry. Elution Buffer (E3, 80 μL) was then added to each well. mRNA was then eluted by incubating the mRNA Catcher PLUS plate with Elution Buffer for 5 min at 68° C. and then immediately placing the plate on ice.
The eluted mRNA was isolated and then used in a one-step real-time […]-PCR reaction, using components of the Ultra Sense Kit together with Applied Biosystems primer-probe mixes. Real-time PCR data was analyzed, using the Ct values, to determine the fold induction of each unknown sample, relative to the control (that is, relative to the control for each independent DMSO concentration).
The following compounds of Formula I were evaluated in this assay. An active compound is one that causes a >15% increase in ApoA-I mRNA at a concentration less than or equal to 100 uM.
For `COc1cc(OC)c2c(=O)[nH]c(-c3ccc(O)c(C)c3)nc2c1` [2-(4-hydroxy-3-methylphenyl)-5,7-dimethoxyquinazolin-4(3H)-one], the “Effect on ApoA-I mRNA levels” value was “Active”.
For `CNC(=O)NCCOc1c(C)cc(-c2nc3cc(OC)cc(OC)c3c(=O)[nH]2)cc1C` [1-(2-(4-(5,7-dimethoxy-4-oxo-3,4-dihydroquinazolin-2-yl)-2,6-dimethylphenoxy)ethyl)-3-methylurea], the “Effect on ApoA-I mRNA levels” value was “Active”.
For `CC(=O)Nc1ccc2nc(-c3cc(C)c(OCCO)c(C)c3)[nH]c(=O)c2c1` [N-(2-(4-(2-hydroxyethoxy)-3,5-dimethylphenyl)-4-oxo-3,4-dihydroquinazolin-6-yl)acetamide], the “Effect on ApoA-I mRNA levels” value was “Active”.
`CCOc1nc(-c2cc(C)c(O)c(C)c2)nc2cc(OC)cc(OC)c12` [4-(4-ethoxy-5,7-dimethoxyquinazolin-2-yl)-2,6-dimethylphenol] was tested, and the “Effect on ApoA-I mRNA levels” value was “Inactive”.
`Cl.Cl.Cl.Cl.N=C(N)NCCCC(N)C(=O)Oc1ccc(-c2cc3ccccc3cn2)cc1` (stereo not drawn) [4-(Isoquinolin-3-yl)phenyl 2-amino-5-guanidinopentanoate tetrahydrochloride] was tested, and the “Effect on ApoA-I mRNA levels” value was “Active”.
In the case of `COc1cc(OC)c2c(=O)[nH]c(-c3cc(C)c(OC)c(C)c3)cc2n1` [2,4-dimethoxy-7-(4-methoxy-3,5-dimethylphenyl)-1,6-naphthyridin-5(6H)-one], the “Effect on ApoA-I mRNA levels” value is reported as “Active”.
In the case of `COc1cc(OC)c2c(=O)[nH]c(-c3cc(C)c(OCCN4CCCC4)c(C)c3)nc2c1` [2-(3,5-dimethyl-4-(2-(pyrrolidin-1-yl)ethoxy)phenyl)-5,7-dimethoxyquinazolin-4(3H)-one], the “Effect on ApoA-I mRNA levels” value is reported as “Active”.
For `COc1cc(OC)c2c(=O)[nH]c(-c3cc(C)c(O)c(C)c3)cc2n1` [7-(4-hydroxy-3,5-dimethylphenyl)-2,4-dimethoxy-1,6-naphthyridin-5(6H)-one], the “Effect on ApoA-I mRNA levels” value was “Active”.
In the case of `COc1cc(OC)c2c(=O)[nH]c(-c3ccc(CCC(=O)O)cc3)nc2c1` [3-(4-(5,7-dimethoxy-4-oxo-3,4-dihydroquinazolin-2-yl)phenyl)propanoic acid], the “Effect on ApoA-I mRNA levels” value is reported as “Active”.
For `COc1cc2c(c(OC)c1)S(=O)(=O)NC(c1cc(C)c(O)c(C)c1)=C2` [6,8-dimethoxy-3-(4-hydroxy-3,5-dimethylphenyl)-2H-1,2-benzothiazine-1,1-dioxide], the “Effect on ApoA-I mRNA levels” value was “Active”.
With `COc1cc(OC)c2c(=O)[nH]c(-c3cc(C)c(OCc4ccccc4)c(C)c3)nc2c1` [2-(4-(benzyloxy)-3,5-dimethylphenyl)-5,7-dimethoxyquinazolin-4(3H)-one] the “Effect on ApoA-I mRNA levels” value was “Active”.
In the case of `CN(C)c1ccc(-c2nc3ccccc3c(=O)[nH]2)c2ccccc12` [2-(4-(dimethylamino)naphthalene-1-yl)quinazolin-4(3H)-one], the “Effect on ApoA-I mRNA levels” value is reported as “Active”.
For `COc1cc(OC)c2c(=O)[nH]c(-c3ccc(O)cc3)cc2c1` [3-(4-hydroxyphenyl)-6,8-dimethoxyisoquinolin-1(2H)-one], the “Effect on ApoA-I mRNA levels” value was “Active”.
`Cc1cc(-c2nc3ccccc3c(=O)[nH]2)cc(C)c1OCCO` [2-(4-(2-hydroxyethoxy)-3,5-dimethylphenyl)quinazolin-4(3H)-one] was tested, and the “Effect on ApoA-I mRNA levels” value was “Active”.
In the case of `COc1cc(OC)c2c(=O)[nH]c(-c3cccc(-c4ccc(SC)cc4)n3)nc2c1` [5,7-dimethoxy-2-(6-(4-(methylthio)phenyl)pyridin-2-yl)quinazolin-4(3H)-one], the “Effect on ApoA-I mRNA levels” value is reported as “Active”.
`COc1cc(OC)c2c(=O)[nH]c(-c3cccc(C)n3)nc2c1` [5,7-dimethoxy-2-(6-methylpyridin-2-yl)quinazolin-4(3H)-one] was tested, and the “Effect on ApoA-I mRNA levels” value was “Active”.
With `Cc1cc(-c2cc3ccc(CN4CCOCC4)cc3c(=O)[nH]2)cc(C)c1O` [3-(4-hydroxy-3,5-dimethylphenyl)-7-(morpholinomethyl)isoquinolin-1(2H)-one] the “Effect on ApoA-I mRNA levels” value was “Active”.
In the case of `COc1cc2cc(-c3cc(C)c(O)c(C)c3)n(C)c(=O)c2c(OC)c1C` [3-(4-hydroxy-3,5-dimethylphenyl)-6,8-dimethoxy-2,7-dimethylisoquinolin-1(2H)-one], the “Effect on ApoA-I mRNA levels” value is reported as “Active”.
In the case of `O=c1[nH]c(-c2ccc(N(CCO)CCO)cc2)nc2ccccc12` [2-(4-(bis(2-hydroxyethyl)amino)phenyl)quinazolin-4(3H)-one], the “Effect on ApoA-I mRNA levels” value is reported as “Active”.
`COc1cc2nc(-c3cc(C)c(OCC(N)=O)c(C)c3)[nH]c(=O)c2cc1OC` [2-(4-(6,7-dimethoxy-4-oxo-3,4-dihydroquinazolin-2-yl)-2,6-dimethylphenoxy)acetamide] was tested, and the “Effect on ApoA-I mRNA levels” value was “Active”.
For `COc1cc(OC)c2c(=O)[nH]c(-c3cc(C)c(OCCNS(=O)(=O)c4ccc(Cl)cc4)c(C)c3)nc2c1` [4-chloro-N-(2-(4-(5,7-dimethoxy-4-oxo-3,4-dihydroquinazolin-2-yl)-2,6-dimethylphenoxy)ethyl)benzenesulfonamide], the “Effect on ApoA-I mRNA levels” value was “Active”.
`CC(=O)Nc1ccc2nc(-c3cc(C)c(O)c(C)c3)[nH]c(=O)c2c1` [N-(2-(4-hydroxy-3,5-dimethylphenyl)-4-oxo-3,4-dihydroquinazolin-6-yl)acetamide] was tested, and the “Effect on ApoA-I mRNA levels” value was “Active”.
For `O=c1[nH]c(-c2ccc3c(c2)OCCO3)nc2ccccc12` [2-(2,3-dihydrobenzo[b][1,4]dioxin-6-yl)quinazolin-4(3H)-one], the “Effect on ApoA-I mRNA levels” value was “Active”.
With `NC(=O)COc1ccc(-c2nc3ccccc3c(=O)[nH]2)cc1` [2-(4-(4-oxo-3,4-dihydroquinazolin-2-yl)phenoxy)acetamide] the “Effect on ApoA-I mRNA levels” value was “Active”.
`COc1cc(OC)cc(-c2nc3cc(OC)cc(OC)c3c(=O)[nH]2)c1` [2-(3,5-dimethoxyphenyl)-5,7-dimethoxyquinazolin-4(3H)-one] was tested, and the “Effect on ApoA-I mRNA levels” value was “Active”.
With `COc1ccc(C(=O)NCCOc2c(C)cc(-c3nc4cc(OC)cc(OC)c4c(=O)[nH]3)cc2C)cc1` [N-(2-(4-(5,7-dimethoxy-4-oxo-3,4-dihydroquinazolin-2-yl)-2,6-dimethylphenoxy)ethyl)-4-methoxybenzamide] the “Effect on ApoA-I mRNA levels” value was “Active”.
In the case of `COc1cc2nc(-c3cc(C)c(O)c(C)c3)[nH]c(=O)c2c(OC)c1CN1CCOCC1` [2-(4-hydroxy-3,5-dimethylphenyl)-5,7-dimethoxy-6-(morpholinomethyl)quinazolin-4(3H)-one], the “Effect on ApoA-I mRNA levels” value is reported as “Active”.
In the case of `COc1cc(OC)c2c(=O)[nH]c(-c3ccc(OCC(=O)O)c(OC)c3)nc2c1` [2-(4-(5,7-dimethoxy-4-oxo-3,4-dihydroquinazolin-2-yl)-2-methoxyphenoxy)acetic acid], the “Effect on ApoA-I mRNA levels” value is reported as “Active”.
`COc1cc(OC)c2c(=O)[nH]c(-c3ccc(OCCO)c(Cl)c3)nc2c1` [2-(3-chloro-4-(2-hydroxyethoxy)phenyl)-5,7-dimethoxyquinazolin-4(3H)-one] was tested, and the “Effect on ApoA-I mRNA levels” value was “Active”.
With `COc1cc(OC)c2c(=O)[nH]c(-c3cc(C)c(O)c(C)c3)cc2c1` [3-(4-hydroxy-3,5-dimethylphenyl)-6,8-dimethoxyisoquinolin-1(2H)-one] the “Effect on ApoA-I mRNA levels” value was “Active”.
`COc1cc(OC)c2c(=O)[nH]c(-c3cc(C(C)(C)C)c(O)c(C(C)(C)C)c3)nc2c1` [2-(3,5-di-tert-butyl-4-hydroxyphenyl)-5,7-dimethoxyquinazolin-4(3H)-one] was tested, and the “Effect on ApoA-I mRNA levels” value was “Active”.
With `COc1cc(OC)c2c(=O)[nH]c(-c3ccc(N4CCN(C)CC4)cc3)nc2c1` [5,7-dimethoxy-2-(4-(4-methylpiperazin-1-yl)phenyl)quinazolin-4(3H)-one] the “Effect on ApoA-I mRNA levels” value was “Active”.
In the case of `COc1cc(OC)c2c(=O)[nH]c(-c3cc(C)c(O)c(C)c3)nc2c1` [2-(4-hydroxy-3,5-dimethylphenyl)-5,7-dimethoxyquinazolin-4(3H)-one], the “Effect on ApoA-I mRNA levels” value is reported as “Active”.
With `COc1cc(OC)c2cnc(-c3cc(C)c(OCCN4CCOCC4)c(C)c3)cc2c1` [4-(2-(4-(6,8-dimethoxyisoquinolin-3-yl)-2,6-dimethylphenoxy)ethyl)morpholine] the “Effect on ApoA-I mRNA levels” value was “Active”.
`COc1cc(OC)c2c(=O)[nH]c(-c3ccc(NC(=O)CO)cc3)nc2c1` [N-(4-(5,7-dimethoxy-4-oxo-3,4-dihydroquinazolin-2-yl)phenyl)-2-hydroxyacetamide] was tested, and the “Effect on ApoA-I mRNA levels” value was “Active”.
`COc1cc(OC)c2c(=O)[nH]c(-c3cc(C)c(OCCN)c(C)c3)nc2c1` [2-(4-(2-aminoethoxy)-3,5-dimethylphenyl)-5,7-dimethoxyquinazolin-4(3H)-one] was tested, and the “Effect on ApoA-I mRNA levels” value was “Active”.
In the case of `COc1cc(OC)c2c(=O)[nH]c(-c3ccc(O)c(OC)c3)nc2c1` [2-(4-hydroxy-3-methoxyphenyl)-5,7-dimethoxyquinazolin-4(3H)-one], the “Effect on ApoA-I mRNA levels” value is reported as “Active”.
`COc1cc(OC)c2c(=O)[nH]c(-c3cc(C)c(OCCNS(=O)(=O)c4ccc(C)cc4)c(C)c3)nc2c1` [N-(2-(4-(5,7-dimethoxy-4-oxo-3,4-dihydroquinazolin-2-yl)-2,6-dimethylphenoxy)ethyl)-4-methylbenzenesulfonamide] was tested, and the “Effect on ApoA-I mRNA levels” value was “Active”.
`COc1ccc(S(=O)(=O)NCCOc2c(C)cc(-c3nc4cc(OC)cc(OC)c4c(=O)[nH]3)cc2C)cc1` [N-(2-(4-(5,7-dimethoxy-4-oxo-3,4-dihydroquinazolin-2-yl)-2,6-dimethylphenoxy)ethyl)-4-methoxybenzenesulfonamide] was tested, and the “Effect on ApoA-I mRNA levels” value was “Active”.
